{"source": "PubChem BioAssay AID1963839", "about": "(Molecular Pharmacology Branch, DTP, NCI, 2024);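 note: spheroids exposed to compounds for 7 days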;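 for viability, T/C: 100% = DMSO vehicle-treated spheroids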", "test_system": "817829-284-R-J1-PDC complex spheroid viability", "experiment": "Anticancer human tumor 817829-284-R-J1-PDC patient-derived colon adenocarcinoma cell line growth inhibition [POLQ]", "settings": "for IC50: curve of first compound; for viability, T/C: stronger effect = lower value", "outline": "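Patient-derived tumour cells were co-cultured with HUVEC and mesenchymal stem cells as multicellular spheroids at 37 °C. They were treated with POLQ inhibitors (novobiocin, ART-558, RP6685) alone or combined with other agents. Top concentrations were at or near clinical Cmax (otherwise 10 microM; SN-38 at 1 microM), decreasing in half-log steps.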", "key": {"[1]": {"settings": "second compound 0.0316 µM, first compound 0.0316 µM"}, "[2]": {"settings": "second compound 0.0316 µM, first compound 0.1 µM"}, "[3]": {"settings": "second compound 0.0316 µM, first compound 0.316 µM"}, "[4]": {"settings": "second compound 0.0316 µM, first compound 1 µM"}, "[5]": {"settings": "second compound 0.1 µM, first compound 0.0316 µM"}, "[6]": {"settings": "second compound 0.1 µM, first compound 0.1 µM"}, "[7]": {"settings": "second compound 0.1 µM, first compound 0.316 µM"}, "[8]": {"settings": "second compound 0.1 µM, first compound 1 µM"}, "[9]": {"settings": "second compound 0.316 µM, first compound 0.0316 µM"}, "[10]": {"settings": "second compound 0.316 µM, first compound 0.1 µM"}, "[11]": {"settings": "second compound 0.316 µM, first compound 0.316 µM"}, "[12]": {"settings": "second compound 0.316 µM, first compound 1 µM"}, "[13]": {"settings": "second compound 1 µM, first compound 0.0316 µM"}, "[14]": {"settings": "second compound 1 µM, first compound 0.1 µM"}, "[15]": {"settings": "second compound 1 µM, first compound 0.316 µM"}, "[16]": {"settings": "second compound 1 µM, first compound 1 µM"}, "[17]": {"settings": "second compound 3.16 µM, first compound 0.0316 µM"}, "[18]": {"settings": "second compound 3.16 µM, first compound 0.1 µM"}, "[19]": {"settings": "second compound 3.16 µM, first compound 0.316 µM"}, "[20]": {"settings": "second compound 3.16 µM, first compound 1 µM"}, "[21]": {"settings": "second compound 10 µM, first compound 0.0316 µM"}, "[22]": {"settings": "second compound 10 µM, first compound 0.1 µM"}, "[23]": {"settings": "second compound 10 µM, first compound 0.316 µM"}, "[24]": {"settings": "second compound 10 µM, first compound 1 µM"}}}
{"smiles": "CC1COCCN1c1cc(-c2ccnn2C)c2ccnc(-c3ccn[nH]3)c2n1", "note": "(centres undefined) + Cc1cccc(N(C)C(=O)C2C(O)CCN2c2nc(C)cc(C(F)(F)F)c2C#N)c1", "values": [{"measurement": "IC50", "setting": "second compound 0.0316 µM", "value": "< 31.6", "unit": "nM"}, {"measurement": "IC50", "setting": "second compound 0.1 µM", "value": "< 31.6", "unit": "nM"}, {"measurement": "IC50", "setting": "second compound 0.316 µM", "value": "< 31.6", "unit": "nM"}, {"measurement": "IC50", "setting": "second compound 1 µM", "value": "< 31.6", "unit": "nM"}, {"measurement": "IC50", "setting": "second compound 3.16 µM", "value": 32.7, "unit": "nM"}, {"measurement": "IC50", "setting": "second compound 10 µM", "value": "< 31.6", "unit": "nM"}, {"measurement": "viability, T/C", "setting": "[1]", "value": 36.6, "unit": "%"}, {"measurement": "viability, T/C", "setting": "[2]", "value": 19.1, "unit": "%"}, {"measurement": "viability, T/C", "setting": "[3]", "value": 6.76, "unit": "%"}, {"measurement": "viability, T/C", "setting": "[4]", "value": 4.35, "unit": "%"}, {"measurement": "viability, T/C", "setting": "second compound 0.0316 µM, first compound 3.16 µM", "value": 3.09, "unit": "%"}, {"measurement": "viability, T/C", "setting": "second compound 0.0316 µM, first compound 10 µM", "value": 2.85, "unit": "%"}, {"measurement": "viability, T/C", "setting": "[5]", "value": 33.4, "unit": "%"}, {"measurement": "viability, T/C", "setting": "[6]", "value": 16.9, "unit": "%"}, {"measurement": "viability, T/C", "setting": "[7]", "value": 7.78, "unit": "%"}, {"measurement": "viability, T/C", "setting": "[8]", "value": 4.15, "unit": "%"}, {"measurement": "viability, T/C", "setting": "second compound 0.1 µM, first compound 3.16 µM", "value": 3.55, "unit": "%"}, {"measurement": "viability, T/C", "setting": "second compound 0.1 µM, first compound 10 µM", "value": 2.55, "unit": "%"}, {"measurement": "viability, T/C", "setting": "[9]", "value": 45.2, "unit": "%"}, {"measurement": "viability, T/C", "setting": "[10]", "value": 15.3, "unit": "%"}, {"measurement": "viability, T/C", "setting": "[11]", "value": 6.75, "unit": "%"}, {"measurement": "viability, T/C", "setting": "[12]", "value": 4.29, "unit": "%"}, {"measurement": "viability, T/C", "setting": "second compound 0.316 µM, first compound 3.16 µM", "value": 3.67, "unit": "%"}, {"measurement": "viability, T/C", "setting": "second compound 0.316 µM, first compound 10 µM", "value": 2.6, "unit": "%"}, {"measurement": "viability, T/C", "setting": "[13]", "value": 33.9, "unit": "%"}, {"measurement": "viability, T/C", "setting": "[14]", "value": 13.1, "unit": "%"}, {"measurement": "viability, T/C", "setting": "[15]", "value": 5.41, "unit": "%"}, {"measurement": "viability, T/C", "setting": "[16]", "value": 4.86, "unit": "%"}, {"measurement": "viability, T/C", "setting": "second compound 1 µM, first compound 3.16 µM", "value": 3.3, "unit": "%"}, {"measurement": "viability, T/C", "setting": "second compound 1 µM, first compound 10 µM", "value": 2.87, "unit": "%"}, {"measurement": "viability, T/C", "setting": "[17]", "value": 50.8, "unit": "%"}, {"measurement": "viability, T/C", "setting": "[18]", "value": 21.9, "unit": "%"}, {"measurement": "viability, T/C", "setting": "[19]", "value": 5.75, "unit": "%"}, {"measurement": "viability, T/C", "setting": "[20]", "value": 3.57, "unit": "%"}, {"measurement": "viability, T/C", "setting": "second compound 3.16 µM, first compound 3.16 µM", "value": 3.34, "unit": "%"}, {"measurement": "viability, T/C", "setting": "second compound 3.16 µM, first compound 10 µM", "value": 3.14, "unit": "%"}, {"measurement": "viability, T/C", "setting": "[21]", "value": 36.6, "unit": "%"}, {"measurement": "viability, T/C", "setting": "[22]", "value": 20, "unit": "%"}, {"measurement": "viability, T/C", "setting": "[23]", "value": 7.43, "unit": "%"}, {"measurement": "viability, T/C", "setting": "[24]", "value": 4.51, "unit": "%"}, {"measurement": "viability, T/C", "setting": "second compound 10 µM, first compound 3.16 µM", "value": 3.57, "unit": "%"}, {"measurement": "viability, T/C", "setting": "second compound 10 µM, first compound 10 µM", "value": 2.62, "unit": "%"}]}
{"smiles": "C=CCn1c(=O)c2cnc(Nc3ccc(N4CCN(C)CC4)cc3)nc2n1-c1cccc(C(C)(C)O)n1", "note": "+ Cc1cccc(N(C)C(=O)C2C(O)CCN2c2nc(C)cc(C(F)(F)F)c2C#N)c1", "values": [{"measurement": "IC50", "setting": "second compound 0.0316 µM", "value": 155, "unit": "nM"}, {"measurement": "IC50", "setting": "second compound 0.1 µM", "value": 218, "unit": "nM"}, {"measurement": "IC50", "setting": "second compound 0.316 µM", "value": 259, "unit": "nM"}, {"measurement": "IC50", "setting": "second compound 1 µM", "value": 236, "unit": "nM"}, {"measurement": "IC50", "setting": "second compound 3.16 µM", "value": 258, "unit": "nM"}, {"measurement": "IC50", "setting": "second compound 10 µM", "value": 233, "unit": "nM"}, {"measurement": "viability, T/C", "setting": "second compound 0.0316 µM, first compound 0.00316 µM", "value": 90.2, "unit": "%"}, {"measurement": "viability, T/C", "setting": "second compound 0.0316 µM, first compound 0.01 µM", "value": 91.5, "unit": "%"}, {"measurement": "viability, T/C", "setting": "[1]", "value": 102, "unit": "%"}, {"measurement": "viability, T/C", "setting": "[2]", "value": 53.4, "unit": "%"}, {"measurement": "viability, T/C", "setting": "[3]", "value": 34.8, "unit": "%"}, {"measurement": "viability, T/C", "setting": "[4]", "value": 5.25, "unit": "%"}, {"measurement": "viability, T/C", "setting": "second compound 0.1 µM, first compound 0.00316 µM", "value": 91.6, "unit": "%"}, {"measurement": "viability, T/C", "setting": "second compound 0.1 µM, first compound 0.01 µM", "value": 92.9, "unit": "%"}, {"measurement": "viability, T/C", "setting": "[5]", "value": 89.3, "unit": "%"}, {"measurement": "viability, T/C", "setting": "[6]", "value": 71.1, "unit": "%"}, {"measurement": "viability, T/C", "setting": "[7]", "value": 39.9, "unit": "%"}, {"measurement": "viability, T/C", "setting": "[8]", "value": 5.58, "unit": "%"}, {"measurement": "viability, T/C", "setting": "second compound 0.316 µM, first compound 0.00316 µM", "value": 98.3, "unit": "%"}, {"measurement": "viability, T/C", "setting": "second compound 0.316 µM, first compound 0.01 µM", "value": 107, "unit": "%"}, {"measurement": "viability, T/C", "setting": "[9]", "value": 93.8, "unit": "%"}, {"measurement": "viability, T/C", "setting": "[10]", "value": 84.9, "unit": "%"}, {"measurement": "viability, T/C", "setting": "[11]", "value": 42.6, "unit": "%"}, {"measurement": "viability, T/C", "setting": "[12]", "value": 7.22, "unit": "%"}, {"measurement": "viability, T/C", "setting": "second compound 1 µM, first compound 0.00316 µM", "value": 111, "unit": "%"}, {"measurement": "viability, T/C", "setting": "second compound 1 µM, first compound 0.01 µM", "value": 98.2, "unit": "%"}, {"measurement": "viability, T/C", "setting": "[13]", "value": 101, "unit": "%"}, {"measurement": "viability, T/C", "setting": "[14]", "value": 82.4, "unit": "%"}, {"measurement": "viability, T/C", "setting": "[15]", "value": 38.7, "unit": "%"}, {"measurement": "viability, T/C", "setting": "[16]", "value": 6.42, "unit": "%"}, {"measurement": "viability, T/C", "setting": "second compound 3.16 µM, first compound 0.00316 µM", "value": 104, "unit": "%"}, {"measurement": "viability, T/C", "setting": "second compound 3.16 µM, first compound 0.01 µM", "value": 102, "unit": "%"}, {"measurement": "viability, T/C", "setting": "[17]", "value": 99.6, "unit": "%"}, {"measurement": "viability, T/C", "setting": "[18]", "value": 74.9, "unit": "%"}, {"measurement": "viability, T/C", "setting": "[19]", "value": 45.3, "unit": "%"}, {"measurement": "viability, T/C", "setting": "[20]", "value": 6.52, "unit": "%"}, {"measurement": "viability, T/C", "setting": "second compound 10 µM, first compound 0.00316 µM", "value": 118, "unit": "%"}, {"measurement": "viability, T/C", "setting": "second compound 10 µM, first compound 0.01 µM", "value": 88.9, "unit": "%"}, {"measurement": "viability, T/C", "setting": "[21]", "value": 86.2, "unit": "%"}, {"measurement": "viability, T/C", "setting": "[22]", "value": 79.4, "unit": "%"}, {"measurement": "viability, T/C", "setting": "[23]", "value": 39.5, "unit": "%"}, {"measurement": "viability, T/C", "setting": "[24]", "value": 5.63, "unit": "%"}]}
